Results from US20090220996A1, “In vitro Assay Methods for Classifying Embryotoxicity of Compounds” (RELIANCE LIFE SCIENCES PVT LTD., priority 2007, published 2009).
Values after ≈ are worked out from the molar mass of the structure shown. Where two headings read alike, the source gives them in different places.

Legend:
[1] = tested on: human foreskin fibroblasts (HFF); experiment: Cytotoxicity in human foreskin fibroblasts, day 15 (MTT / CyQUANT); assay type: cell-based; details: for IC50: Homo sapiens, Fibroblast
Experimental: In general, the presently disclosed embryotoxicity testing protocols comprise the following sequence of steps. Studies using embryoid bodies generally comprise: a) preparation of various concentrations of test solutions in culture medium or a desired solvent; b) preparation of a cell suspension by enzymatic digestion of human embryonic stem cell colonies; c) culturing the cell suspension for formation of embryoid bodies in the presence and absence of one or more test solutions, and incubation for several days (e.g., three days) in hanging drops; d) cultivation of the embryoid bodies in bacteriological petri dishes for several days (e.g., two days) under controlled conditions; e) transfer of the embryoid bodies into 96 well plates and incubation for several days (e.g., 10 days) in the presence of one or more test solutions; and f) detection of the viability of the embryoid bodies after 15 days by MTT assay, or fluorescent or luminescent method, and isolation of RNA for studying gene expression. Studies using human foreskin fibroblasts (HFF) generally comprise: a) preparation of various concentrations of test solutions in culture medium or a desired solvent; b) plating of HFF cells in 96 well plates in the presence or absence of one or more test solutions for 15 days, changing the media and test solutions every 2 days; and c) detection of the viability of HFF after 15 days by MTT assay, or fluorescent or luminescent method. Studies using human embryonic stem cells generally comprise: a) preparation of various concentrations of test solutions in culture medium or a desired solvent; b) preparation of hES colonies by manual passage in the presence and absence of one or more test solutions, and incubation for 15 days on matrigel coated plates changing the media and test solutions every 2 days; c) disruption of the colonies after 15 days with enzymes to form single cells; d) labeling of single cells with a fluorescently-labeled dye, such as propidium iodide (“PI”); and e) detection of the percentage viability with FACS as a measure of cytotoxicity.
HFF were trypsinized, and a cell suspension of 1×10^4 cells/ml in routine culture medium was prepared. Using a multi-channel pipette, 50 μl volumes of the cell suspension (500 cells/well) was dispensed. Viability of the cells can be checked by staining an aliquot of the cell suspension with trypan blue. A viability of 90% is acceptable. The cells were incubated for 2 hours in a humidified atmosphere with 5% CO2 at 37° C., which allows for adherence of the cells. After 15 days of culture with medium changes (containing appropriate test compound concentrations) every 3 days, the viability of the cells was determined using the MTT test, which was detected quantitatively using a microplate ELISA reader at 570 nm with a 630 nm reference filter.
(§1) Cytotoxicity analysis of three cell types (hES, hEBs and HFF) was evaluated using the CyQUANT assay following compound treatment. All data were the mean of three independent experiments for each cell type. Data is represented as the mean±SE.
The endpoints of detection chosen in the study was inhibition of cell proliferation in human ES cells (IC50 hES), differentiating EBs (IC50 hEB), and in HFF (IC50 HFF), as evidenced in a cell viability assay using CyQuant assay.

[2] = tested on: human embryonic stem cells (hES); experiment: Cytotoxicity in undifferentiated human embryonic stem cells, day 15 (FACS with PI / CyQUANT); assay type: cell-based; details: for IC50: Homo sapiens, Embryonic stem cell
Experimental: In general, the presently disclosed embryotoxicity testing protocols comprise the following sequence of steps. Studies using embryoid bodies generally comprise: a) preparation of various concentrations of test solutions in culture medium or a desired solvent; b) preparation of a cell suspension by enzymatic digestion of human embryonic stem cell colonies; c) culturing the cell suspension for formation of embryoid bodies in the presence and absence of one or more test solutions, and incubation for several days (e.g., three days) in hanging drops; d) cultivation of the embryoid bodies in bacteriological petri dishes for several days (e.g., two days) under controlled conditions; e) transfer of the embryoid bodies into 96 well plates and incubation for several days (e.g., 10 days) in the presence of one or more test solutions; and f) detection of the viability of the embryoid bodies after 15 days by MTT assay, or fluorescent or luminescent method, and isolation of RNA for studying gene expression. Studies using human foreskin fibroblasts (HFF) generally comprise: a) preparation of various concentrations of test solutions in culture medium or a desired solvent; b) plating of HFF cells in 96 well plates in the presence or absence of one or more test solutions for 15 days, changing the media and test solutions every 2 days; and c) detection of the viability of HFF after 15 days by MTT assay, or fluorescent or luminescent method. Studies using human embryonic stem cells generally comprise: a) preparation of various concentrations of test solutions in culture medium or a desired solvent; b) preparation of hES colonies by manual passage in the presence and absence of one or more test solutions, and incubation for 15 days on matrigel coated plates changing the media and test solutions every 2 days; c) disruption of the colonies after 15 days with enzymes to form single cells; d) labeling of single cells with a fluorescently-labeled dye, such as propidium iodide (“PI”); and e) detection of the percentage viability with FACS as a measure of cytotoxicity. […]
After 2 hours incubation, 150 μl of assay medium containing the appropriate concentration of test chemical (150 μl volume contains 1.333× the final chemical concentration) was added. Appropriate blanks without the chemicals were used along with the test samples The cell cultures were incubated at 5% CO2 and 37° C. for 3 days. On day 3, test solution was removed with the care, so that the cell layer on the bottom of the wells was not disturbed. Next, 200 μl of freshly prepared test solution (final concentration/well as on day 0) was added, and the cell cultures were incubated at 5% CO2 and 37° C. for 3 days. This process was repeated on days 6, 9, and 12. Determination of cell growth inhibition was performed at day 15 of the assay using MTT reagent. Cytotoxicity for hES cells was calculated using flow cytometry. Briefly, cells were placed on matrigel coated plates along with different test compound concentrations. Media was replaced every 3 days along with the different test compound concentrations. At day 15, hES cells were collected by trypsinization, and after washing with PBS, the cells were incubated with PI for 10 minutes in the dark. Percent viability for various test compound concentrations was calculated using flow cytometry.
as §1

mouse ES cells = details: Table 4; from the EST (Genschow, et al., 2000); cited from earlier work
[3] = Table 5; cited from earlier work
[4] = cited from earlier work
[5] = 360 h, Table 3, mean of 3 experiments, day 15, read-out: IC50-HFF
[6] = 360 h, Table 3, mean of 3 experiments, day 15, read-out: IC50-hES
[7] = Table 4, CyQuant cell viability assay, read-out: Human EST IC50 - HFF
[8] = Table 4, CyQuant cell viability assay, read-out: Human EST IC50 - hES
[9] = Table 3, mean of 3 experiments, day 15
[10] = Table 4, CyQuant cell viability assay

SMILES | IC50 [1, 5] [µg/mL] | IC50 [2, 6] [µg/mL] | Mouse EST IC50 - mES (mouse ES cells) [µg/mL] | IC50 [1, 7] [µg/mL] | Effects on fetus [3] | General toxicity [3] | Therap. range in human serum [4] [µg/mL] | IC50 [2, 8] [µg/mL] | also measured
O=c1[nH]cc(F)c(=O)[nH]1 [5-Fluorouracil, 5-fluorouracil] | 0.11 (≈ 0.848 µM) | 0.546 (≈ 4.2 µM) | – | – | – | – | – | – | survival percentage ([1]; HFF, 1 μg/ml, day 15, FIG. 3A): 7%; effect on cell viability ([1]; HFF, up to 0.01 μg/ml, FIG. 3A): no major effect; survival percentage ([2]; hES, 1 μg/ml, day 15, FIG. 3A): 30%; effect on cell viability ([2]; hES, up to 0.01 μg/ml, FIG. 3A): no major effect
CS(=O)(=O)OCCCCOS(C)(=O)=O [Busulfan, busulfan] | 2.7 ± 0.2 (≈ 11 µM) | 2.1 ± 0.6 (≈ 8.53 µM) | 2.1 | 2.7 ± 0.2 (≈ 11 µM) | Reproductive | Hematopoietic | <0.6 | 2.1 ± 0.6 (≈ 8.53 µM) | Therap. range in human serum ([4]; listed as busulfan): less than 0.6 μg/ml
Cn1c(=O)c2c(ncn2C)n(C)c1=O [Caffeine, caffeine] | 79.3 ± 3.4 (≈ 408 µM) | 110 ± 12.5 (≈ 566 µM) | – | 79.3 ± 3.4 (≈ 408 µM) | – | Cardiac, CNS | – | 110 ± 12.5 (≈ 566 µM) | survival ([1]; HFF, 500 μg/ml, FIG. 3B): about 10%; survival ([2]; hES, 500 μg/ml, FIG. 3B): about 10%
NC(=O)NO [Hydroxyurea, hydroxyurea] | 8.9 ± 0.9 (≈ 117 µM) | 2.6 ± 0.2 (≈ 34.2 µM) | 2.0 | 8.9 ± 0.9 (≈ 117 µM) | – | – | <9.88 | 2.6 ± 0.2 (≈ 34.2 µM) | –
COc1ccc2c(c1)c(CC(=O)O)c(C)n2C(=O)c1ccc(Cl)cc1 [Indomethacin, indomethacin] | 33.5 ± 1.3 (≈ 93.6 µM) | 73.4 ± 3.4 (≈ 205 µM) | 29 | 33.5 ± 1.3 (≈ 93.6 µM) | – | Cardiac, Renal | – | 73.4 ± 3.4 (≈ 205 µM) | –
CC1(C)S[C@@H]2[C@H](NC(=O)Cc3ccccc3)C(=O)N2[C@H]1C(=O)O [Penicillin G, penicillin G] | – | – | 2950 | – | None in Humans | Hypersensitivity | 300 to 500 | – | cell survival ([1]; HFF, 5000 μg/ml (highest dose), FIG. 3C): 1-2%; IC50-HFF [1, 9]: 1661 ± 23.5 µg/mL (≈ 4970 µM); Human EST IC50 - HFF [1, 10]: 1661 ± 23.5 µg/mL; IC50-hES [2, 9]: 2013 ± 23.5 µg/mL (≈ 6020 µM); Human EST IC50 - hES [2, 10]: 2013 ± 23.5 µg/mL; cell survival ([2]; hES, 5000 μg/ml (highest dose), FIG. 3C): 1-2%
